# Earlier results as cited in article PMC4506092, “Utilizing Chemical Genomics to Identify Cytochrome b as a Novel Drug Target for Chagas Disease” (PLoS Pathogens, 2015).
# System: T. cruzi infection
# Conditions: cited from earlier work; for Parasitological cure rates: Chagas disease patients, clinical testing
Compound,Parasitological cure rates,Patients with failure to cure infection (treated Chagas patients),"Patients with recrudescence of infection (Chagas patients, 60-day treatment, determined by PCR)"
C[C@@H](c1nc(-c2ccc(C#N)cc2)cs1)[C@@](Cn1cncn1)(OCOP(=O)(O)O)c1ccc(F)cc1F [Compound E1224],20–30%,~ 70%,–
CC[C@@H]([C@H](C)O)n1ncn(-c2ccc(N3CCN(c4ccc(OC[C@@H]5CO[C@@](Cn6cncn6)(c6ccc(F)cc6F)C5)cc4)CC3)cc2)c1=O [posaconazole],20–30%,–,81%
